In patent US20250304587A1, “WEE1 INHIBITOR, PREPARATION THEREFOR AND USE THEREOF” (JIANGSU TASLY DIYI PHARMACEUTICAL CO., LTD., priority 2022, published 2025) one finds IC50 data, which are given here for 33 compounds.

The term IC50 denotes the concentration that gives 50% inhibition.

In one test the test system is OVCAR-3 cells. The test is described as follows: Cell Titer-Glo anti-proliferation, OVCAR-3 cells. Format: cell-based. As to conditions: 3 days, read-out: Anti-proliferative activity OVCAR-3 (IC50 class). The procedure: (§1) A. Evaluation of the Anti-Proliferative Effect of Compounds on BxPC3, HT-29 and OVCAR-3 Cells by the Cell Titer-Glo Method
(§2) Compound solutions of different concentration gradients were prepared. […] The cell growth group without compound was used as a positive control (maximum signal control) and the medium was used as a negative control (minimum signal control), while ensuring that the final level of DMSO in each reaction well was 0.2%. After removing the medium from the 384-well plate, 25 μl of the configured compound at different concentrations was transferred into the well plate and the compound and cells were incubated in the cell incubator at 37° C. with 5% CO2 for 3 days.
(§3) The 384-well plates were removed from the cell incubator and allowed to equilibrate for 1 h to room temperature. 25 μl of Cell Titer-Glo assay was added to each well, lysed on a shaker for 2 min and then read out (Luminescence) using a BMG PHERAStar after 10 min incubation. Calculate the inhibition rate from the luminescence signal.
(§4) to calculate the rate of inhibition of the cells by different concentrations of the compounds. The IC50 of the compound on cell activity inhibition was calculated by fitting a log(inhibitor) vs. response-Variable slope model to GraphPad Prism 6. The fitted equation was: Y=Bottom+(Top-Bottom)/(1+10^((Log IC50−X)*HillSlope)), where Y represents the rate of inhibition and X represents the concentration of the known compound after Log.
For orientation: Cellular ATP, detected with luciferase, serves as a proxy for viable cell number.

Another test has as its system HT-29 cells. Put plainly: Cell Titer-Glo anti-proliferation, HT-29 cells. Format: cell-based, human. As to conditions: 3 days, read-out: Anti-proliferative activity HT-29 (IC50 class). As for the experimental part:
as §1, §2, §3, §4

In another test the test system is BxPC3 cells. The test is described as follows: Cell Titer-Glo anti-proliferation, BxPC3 cells. As to conditions: 3 days, read-out: Anti-proliferative activity BxPC3 (IC50 class). Format: cell-based, human. As for the experimental part:
as §1, §2, §3, §4

For `C=CCn1c(=O)c2cnc(Nc3ccc(N4CCC(N5CCN(C)CC5)C(F)C4)cc3)nc2n1-c1ccc2c(n1)C(C)(O)C1(CC1)C2` (mixture of isomers) [Compound 14], the IC50 with OVCAR-3 cells lay in the range of 100 to 1000 nM; with HT-29 cells it was 100 to 1000 nM; in the test with BxPC3 cells it was 1000 to 2000 nM.

For `C=CCn1c(=O)c2cnc(Nc3ccc(N4CCN(C)CC4)c(C)c3)nc2n1-c1ccc2c(n1)C(C)(O)C1(CC2)CC1` (racemic) [Compound 8], the IC50 with OVCAR-3 cells is 1000 to 2000 nM; with HT-29 cells, 100 to 1000 nM; with BxPC3 cells, 1000 to 2000 nM.

Turning to `C=CCn1c(=O)c2cnc(Nc3ccc4c(c3)CN(C)CC4(C)C)nc2n1-c1ccc2c(n1)C(C)(O)C1(CC1)C2` (racemic) [Compound 9], the IC50 is 100 to 1000 nM in the test with OVCAR-3 cells, 1000 to 2000 nM in the test on HT-29 cells and greater than 10000 nM with BxPC3 cells.

In the case of `C=CCn1c(=O)c2cnc(Nc3ccc(N4CCN(C)CC4)c(C)c3)nc2n1-c1ccc2c(n1)C(C)(O)C1(CC1)C2` (racemic) [Compound 10], the IC50 in the test with OVCAR-3 cells was in the range of 100 to 1000 nM; in the test on HT-29 cells, 1000 to 2000 nM; in the test with BxPC3 cells it was 2000 to 5000 nM.

Turning to `C=CCn1c(=O)c2cnc(Nc3ccc(N4CCC(N(C)C)CC4)cc3)nc2n1-c1ccc2c(n1)C(C)(O)C1(CC1)C2` (racemic) [Compound 12], the IC50 lay in the range of 100 to 1000 nM in the test on OVCAR-3 cells, 100 to 1000 nM with HT-29 cells and 2000 to 5000 nM in the test on BxPC3 cells.

With `C=CCn1c(=O)c2cnc(Nc3ccc(N4CCN(C)CC4)cc3)nc2n1-c1ccc2c(n1)C(O)(CC)C1(CC1)C2` (racemic) [Compound 18], the figures for the IC50 in the test with OVCAR-3 cells, in the test with HT-29 cells and in the test on BxPC3 cells were 2000 to 5000 nM, 100 to 1000 nM and 2000 to 5000 nM, respectively.

On to `C=CCn1c(=O)c2cnc(Nc3ccc(N4CCN(C)CC4)c(CO)c3)nc2n1-c1ccc2c(n1)C(C)(O)C1(CC1)C2` (racemic) [Compound 19], for which the IC50 in the test with OVCAR-3 cells, in the test with HT-29 cells and with BxPC3 cells was 2000 to 5000 nM in each case.

For the compound `C=CCn1c(=O)c2cnc(Nc3ccc(N4CCOCC4)cc3)nc2n1-c1ccc2c(n1)C(O)(CC)C1(CC1)C2` (racemic) [Compound 24], the IC50 in the test on OVCAR-3 cells, in the test with HT-29 cells and in the test on BxPC3 cells was 1000 to 2000 nM throughout.

As to `C=CCn1c(=O)c2cnc(Nc3ccc(N4CC5CCC(C4)N5C)cc3)nc2n1-c1ccc2c(n1)C(O)(CC)C1(CC1)C2` (racemic) [Compound 25], the figures for the IC50 in the test with OVCAR-3 cells, in the test with HT-29 cells and with BxPC3 cells were 100 to 1000 nM, 1000 to 2000 nM and 1000 to 2000 nM, respectively.

Take `C=CCn1c(=O)c2cnc(Nc3ccc(N4CCC5(CCN(C)CC5)CC4)cc3)nc2n1-c1ccc2c(n1)C(O)(CC)C1(CC1)C2` (racemic) [Compound 27]: the IC50 in the test on OVCAR-3 cells, in the test on HT-29 cells and in the test with BxPC3 cells was 100 to 1000 nM throughout.

Regarding `C=CCn1c(=O)c2cnc(Nc3ccc(N4CCN(C)CC4)cc3)nc2n1-c1ccc2c(c1)C(O)(CC)C1(CC1)C2` (racemic) [Compound 29], the IC50 is 100 to 1000 nM in the test with OVCAR-3 cells, 1000 to 2000 nM in the test with HT-29 cells and 2000 to 5000 nM with BxPC3 cells.

Turning to `C=CCn1c(=O)c2cnc(Nc3ccc(N4CC5CC(C4)N5C)cc3)nc2n1-c1ccc2c(n1)C(O)C1(CC2)CC1` (racemic) [Compound 34], the IC50 with OVCAR-3 cells fell in the range of 1000 to 2000 nM; in the test with HT-29 cells it was 100 to 1000 nM; with BxPC3 cells it was 1000 to 2000 nM.

On to `C=CCn1c(=O)c2cnc(Nc3ccc(N4C[C@H]5CN(C)C[C@H]5C4)cc3)nc2n1-c1ccc2c(n1)C(C)(O)C1(CC2)CC1` (mixture of isomers) [Compound 43], for which the IC50 in the test on OVCAR-3 cells, in the test with HT-29 cells and in the test on BxPC3 cells was 100 to 1000 nM in each case.

In the case of `C=CCn1c(=O)c2cnc(Nc3ccc(N4CCC5(CC4)CN(C)C5)cc3)nc2n1-c1ccc2c(n1)C(C)(O)C1(CC2)CC1` (racemic) [Compound 47], the IC50 in the test with OVCAR-3 cells, in the test with HT-29 cells and with BxPC3 cells was greater than 10000 nM in each case.

With `C=CCn1c(=O)c2cnc(Nc3ccc(N4CC5CC(C4)N5C)c(OC)c3)nc2n1-c1ccc2c(n1)C(O)C1(CC2)CC1` (racemic) [Compound 49], the IC50 in the test on OVCAR-3 cells, in the test with HT-29 cells and with BxPC3 cells was 2000 to 5000 nM throughout.

Consider `C=CCn1c(=O)c2cnc(Nc3ccc(N4CCN(C)CC4)cc3)nc2n1-c1ccc2c(n1)C(C)(O)C1(CC1)C2` (single isomer, unassigned) [Compound 3a], for which the IC50 in the test on OVCAR-3 cells, with HT-29 cells and in the test with BxPC3 cells was 1000 to 2000 nM each time.

`C=CCn1c(=O)c2cnc(Nc3ccc(N4CCN(C)CC4)cc3)nc2n1-c1ccc2c(n1)C(C)(O)C1(CC2)CC1` (single isomer, unassigned) [Compound 6b]: the IC50 with HT-29 cells was in the range of 100 to 1000 nM; in the test on BxPC3 cells it was 1000 to 2000 nM.

As for `C=CCn1c(=O)c2cnc(Nc3ccc(N4CCC(N(C)C)C(F)C4)cc3)nc2n1-c1ccc2c(n1)C(C)(O)C1(CC1)C2` (single isomer, unassigned) [Compound 20a], the IC50 with OVCAR-3 cells, with HT-29 cells and with BxPC3 cells was 1000 to 2000 nM each time.

For the compound `C=CCn1c(=O)c2cnc(Nc3ccc(N4CCC(N(C)C)[C@@H](F)C4)cc3)nc2n1-c1ccc2c(n1)[C@@](C)(O)C1(CC1)C2` (single isomer, unassigned) [Compound 20b], the IC50 with OVCAR-3 cells, in the test on HT-29 cells and with BxPC3 cells was 1000 to 2000 nM in each case.

Regarding `C=CCn1c(=O)c2cnc(Nc3ccc(N4CC5CC(C4)N5C4CCC4)cc3)nc2n1-c1ccc2c(n1)C(O)(CC)C1(CC1)C2` (single isomer, unassigned) [Compound 22a], the IC50 with OVCAR-3 cells was in the range of 100 to 1000 nM; in the test on HT-29 cells it was 100 to 1000 nM; in the test on BxPC3 cells it was 1000 to 2000 nM.

As for `C=CCn1c(=O)c2cnc(Nc3ccc(N4CCN(C)CC4)c(C)c3)nc2n1-c1ccc2c(n1)[C@](C)(O)C1(CC2)CC1` (single isomer, unassigned) [Compound 23b], the IC50 in the test on OVCAR-3 cells, with HT-29 cells and with BxPC3 cells was 100 to 1000 nM throughout.

For `C=CCn1c(=O)c2cnc(Nc3ccc(N4C[C@@H](C)O[C@@H](C)C4)cc3)nc2n1-c1ccc2c(n1)[C@](O)(CC)C1(CC1)C2` (single isomer, unassigned) [Compound 31a], the IC50 in the test on OVCAR-3 cells was in the range of 5000 to 10000 nM; in the test on HT-29 cells, 2000 to 5000 nM; in the test with BxPC3 cells it was 5000 to 10000 nM.

Consider `C=CCn1c(=O)c2cnc(Nc3ccc(N4C[C@@H](C)O[C@@H](C)C4)cc3)nc2n1-c1ccc2c(n1)[C@@](O)(CC)C1(CC1)C2` (single isomer, unassigned) [Compound 31b], for which the IC50 in the test on OVCAR-3 cells was in the range of 1000 to 2000 nM; in the test with HT-29 cells, 2000 to 5000 nM; in the test with BxPC3 cells it was 2000 to 5000 nM.

Take `C=CCn1c(=O)c2cnc(Nc3ccc(N4CC5CC(C4)N5C)cc3)nc2n1-c1ccc2c(n1)C(O)C1(CC2)CC1` (single isomer, unassigned) [Compound 34a]: the IC50 with OVCAR-3 cells lay in the range of 2000 to 5000 nM; in the test on HT-29 cells it was 100 to 1000 nM.

For `C=CCn1c(=O)c2cnc(Nc3ccc(N4CC5CC(C4)N5C)cc3)nc2n1-c1ccc2c(n1)[C@H](O)C1(CC2)CC1` (single isomer, unassigned) [Compound 34b], the results for the IC50 in the test on OVCAR-3 cells, in the test on HT-29 cells and in the test on BxPC3 cells were 1000 to 2000 nM, 100 to 1000 nM and 100 to 1000 nM, respectively.

As to `C=CCn1c(=O)c2cnc(Nc3ccc(N4CC5CC(C4)N5C(C)C)cc3)nc2n1-c1ccc2c(n1)[C@](C)(O)C1(CC2)CC1` (single isomer, unassigned) [Compound 35a], the IC50 in the test on OVCAR-3 cells, in the test with HT-29 cells and in the test on BxPC3 cells was 100 to 1000 nM each time.

Regarding `C=CCn1c(=O)c2cnc(Nc3ccc(N4CC5CC(C4)N5C(C)C)cc3)nc2n1-c1ccc2c(n1)[C@@](C)(O)C1(CC2)CC1` (single isomer, unassigned) [Compound 35b], the IC50 in the test on OVCAR-3 cells, in the test on HT-29 cells and in the test with BxPC3 cells was 100 to 1000 nM each time.

In the case of `C=CCn1c(=O)c2cnc(Nc3ccc(N4CC5CC(C4)N5C(C)C)cc3)nc2n1-c1ccc2c(n1)C(O)(CC)C1(CC2)CC1` (single isomer, unassigned) [Compound 36a], the IC50 in the test with OVCAR-3 cells, with HT-29 cells and in the test on BxPC3 cells was 100 to 1000 nM throughout.

Consider `C=CCn1c(=O)c2cnc(Nc3ccc(N4CC5CC(C4)N5C(C)C)cc3)nc2n1-c1ccc2c(n1)[C@](O)(CC)C1(CC2)CC1` (single isomer, unassigned) [Compound 36b], for which the IC50 in the test with OVCAR-3 cells, with HT-29 cells and with BxPC3 cells was 100 to 1000 nM throughout.

As for `C=CCn1c(=O)c2cnc(Nc3ccc(N4CC5CC(C4)N5C(C)C)cc3)nc2n1-c1ccc2c(n1)C(O)C1(CC2)CC1` (single isomer, unassigned) [Compound 39a], the IC50 with OVCAR-3 cells, in the test with HT-29 cells and in the test with BxPC3 cells was 100 to 1000 nM each time.

Consider `C=CCn1c(=O)c2cnc(Nc3ccc(N4CCN(C)CC4)cc3)nc2n1-c1ccc2c(n1)N(CC)CC21CCC1` [Compound 16], for which the IC50 in the test on HT-29 cells is 100 to 1000 nM; in the test on BxPC3 cells, 1000 to 2000 nM.

For `C=CCn1c(=O)c2cnc(Nc3ccc(N4CCC5(CCN(C)CC5)CC4)cc3)nc2n1-c1ccc2c(n1)[C@](C)(O)C1(CC2)CC1` [Compound 44b], in the test on BxPC3 cells, the IC50 is 100 to 1000 nM.

As to `C=CCn1c(=O)c2cnc(Nc3ccc(N4CC5CC(C4)N5CC)cc3)nc2n1-c1ccc2c(n1)[C@](C)(O)C1(CC2)CC1` [Compound 51b], in the test with BxPC3 cells, the IC50 was in the range of 100 to 1000 nM.
